From US20020119141A1, “Biochemical methods that eliminate corneal scars, opacification and haze” (priority 1999, published 2002)
Like-named read-outs stand apart in the source and are kept apart here.

Test system: eyes of rabbits
Excerpt: Fifty-two (52) healthy rabbits of the New Zealand Cross variety (26 male, 26 female) weighing 1.5 kg to 2.5 kg were individually marked for identification and were housed individually in suspended cages. The animals received a commercially available pelleted rabbit feed on a daily basis, with tap water available ad libitum.
The animals were divided into thirteen groups of 4 animals each (2 males, 2 femals). Two animals in each group (1 male, 1 female) were selected for pretreatment fundus photography and fluorescein angiography.
The fundus photography was performed by restraining the animals and visualizing the optic nerve, retinal arcades and fundus with a KOWA® RC-3 Fundus Camera loaded with Kodak Gold 200 ASA film.
The fluorescein angiography involved a 1.5-ml injection of 2% sterile fluorescein solution via the marginal ear vein. Approximately 30 seconds post-injection the fluorescein was visualized upon localization of the optic nerve, retinal vessels and fundus.
The following day, each animal was anesthetized by intravenous administration of a combination of 34 mg/kg of ketamine hydrochloride and 5-mg/kg xylazine. The eyelids were retracted using a lid speculum, and the eyes were disinfected with an iodine-povidone wash.
The experimental treatments administered to each animal group were as follows:
The day following the injections (Day 1) the 26 animals, which were subjected to the fundus photography and fluorescein angiography, were observed using the same methods as for the pre-dose examination.
The eyes were then surgically removed and placed in a fixture solution of 2.5% glutaraldehyde with 0.1M phosphate buffered saline at pH 7.37. Alternatively, one randomly selected rabbit was euthanized by pentobarbital injection but then fixed by intracardiac injection of the gluteraldehyde solution into the left ventricle to determine the effect of the fixation procedure on the histology findings within the enucleated eyes.
On Day 7, the 13 female rabbits that had been previously photographed and angiography performed were subjected to same observations following the methods previously described.
The remaining 26 animals were euthanized as described above 7 days after dosing. The eyes were fixed in the same manner as those, which had been fixed on day 2. Also, one randomly selected rabbit was subjected to the same intracardiac gluteraldehyde fixation procedure described hereabove for the previously randomly selected animal.
The eyes of the animals treated in this example were examined grossly and microscopically for evidence of treatment-related toxicities.

## Thimerosal [BSS + Thimerisol]
0.0075 mg thimerosal in BSS, day 2
  treatment-related toxicity of the eyes (gross and microscopic examination): free of toxicity
0.0075 mg thimerosal in BSS, day 7, listed as BSS plus thimerosal
  treatment-related toxicity of the eyes (gross and microscopic examination): significant toxic effects
0.0075 mg thimerosal in BSS, day 7, listed as BSS+thimerosal
  treatment-related toxicity of the eyes (gross and microscopic examination): breakdown of the blood retinal barrier
0.025 mg thimerosal in BSS, day 2 and 7 post dose
  treatment-related toxicity of the eyes (gross and microscopic examination): severe treatment-related toxic effects
Intravitreal injection, at the dosages tested
  toxic effects in the eyes of rabbits (conclusion): do cause toxic effects
